Test results from ChEMBL document CHEMBL3044964, “Synthesis of novel imidazo[2,1-b][1,3,4]thiadiazoles appended to sydnone as anticancer agents” (Med Chem Res, 2013).
Values after ≈ are worked out from the molar mass of the structure shown. Active and inactive are the calls of the source. The rule behind the calls is not given here.

Tested on: HT-29
Assay: Cytotoxicity against Homo sapiens (human) HT-29 cells by SRB assay
Type: functional
Settings: not given

`O=c1oc2ccccc2cc1-c1cn2nc(-c3c([O-])[o+]nn3-c3ccc(Cl)cc3)sc2n1` and `COc1ccc(-n2n[o+]c([O-])c2-c2nn3cc(-c4cc5ccccc5oc4=O)nc3s2)cc1` are within 1.5-fold of each other in GI50: 4 µg/mL (≈ 8.62 µM) for the first, 3.14 µg/mL (≈ 6.83 µM) for the second.

Compared with `COc1ccc(-n2n[o+]c([O-])c2-c2nn3cc(-c4cc5cc(Br)ccc5oc4=O)nc3s2)cc1`, `O=c1oc2ccc(Br)cc2cc1-c1cn2nc(-c3c([O-])[o+]nn3-c3ccccc3)sc2n1` is 1.8-fold higher in GI50: 3.04 µg/mL (≈ 5.65 µM) for the first, 5.6 µg/mL (≈ 11 µM) for the second.

`O=c1oc2ccccc2cc1-c1cn2nc(-c3c([O-])[o+]nn3-c3ccccc3)sc2n1` and `Cc1ccc(-n2n[o+]c([O-])c2-c2nn3cc(-c4cc5cc(Cl)ccc5oc4=O)nc3s2)cc1` are within 1.5-fold of each other in GI50: 6.3 µg/mL (≈ 14.7 µM) for the first, 7.9 µg/mL (≈ 16.5 µM) for the second.

`O=c1oc2ccccc2cc1-c1cn2nc(-c3c([O-])[o+]nn3-c3ccc(Cl)cc3)sc2n1` and `COc1ccc(-n2n[o+]c([O-])c2-c2nn3cc(-c4cc5ccccc5oc4=O)nc3s2)cc1` cannot be ordered by LC50: > 80 µg/mL for the first, > 70 µg/mL for the second.

`COc1ccc(-n2n[o+]c([O-])c2-c2nn3cc(-c4cc5cc(Br)ccc5oc4=O)nc3s2)cc1` and `O=c1oc2ccc(Br)cc2cc1-c1cn2nc(-c3c([O-])[o+]nn3-c3ccccc3)sc2n1` cannot be ordered by LC50: > 80 µg/mL for the first, > 70 µg/mL for the second.

`O=c1oc2ccccc2cc1-c1cn2nc(-c3c([O-])[o+]nn3-c3ccccc3)sc2n1` and `Cc1ccc(-n2n[o+]c([O-])c2-c2nn3cc(-c4cc5cc(Cl)ccc5oc4=O)nc3s2)cc1` cannot be ordered by LC50: > 70 µg/mL for the first, > 80 µg/mL for the second.

`O=c1oc2ccccc2cc1-c1cn2nc(-c3c([O-])[o+]nn3-c3ccc(Cl)cc3)sc2n1` and `COc1ccc(-n2n[o+]c([O-])c2-c2nn3cc(-c4cc5ccccc5oc4=O)nc3s2)cc1` cannot be ordered by TGI: < 30 µg/mL for the first, < 30 µg/mL for the second.

Compared with `COc1ccc(-n2n[o+]c([O-])c2-c2nn3cc(-c4cc5cc(Br)ccc5oc4=O)nc3s2)cc1`, `O=c1oc2ccc(Br)cc2cc1-c1cn2nc(-c3c([O-])[o+]nn3-c3ccccc3)sc2n1` is higher in TGI: < 30 µg/mL for the first, > 30 µg/mL for the second.

`O=c1oc2ccccc2cc1-c1cn2nc(-c3c([O-])[o+]nn3-c3ccccc3)sc2n1` and `Cc1ccc(-n2n[o+]c([O-])c2-c2nn3cc(-c4cc5cc(Cl)ccc5oc4=O)nc3s2)cc1` cannot be ordered by TGI: > 30 µg/mL for the first, > 40 µg/mL for the second.

Tested on: Escherichia coli
Assay: Toxicity in wild type Escherichia coli AB1157 assessed as growth inhibition at 250 ug after 24 hr by agar well diffusion method
Type: organism-based
Settings: in vivo

`O=c1oc2ccccc2cc1-c1cn2nc(-c3c([O-])[o+]nn3-c3ccc(Cl)cc3)sc2n1` and `COc1ccc(-n2n[o+]c([O-])c2-c2nn3cc(-c4cc5cc(Br)ccc5oc4=O)nc3s2)cc1` are the same in “diameter of the inhibition zone (DIZ)” value: 0 cm for the first, 0 cm for the second.

`O=c1oc2ccccc2cc1-c1cn2nc(-c3c([O-])[o+]nn3-c3ccccc3)sc2n1` and `O=c1oc2ccc(Br)cc2cc1-c1cn2nc(-c3c([O-])[o+]nn3-c3ccccc3)sc2n1` are the same in “diameter of the inhibition zone (DIZ)” value: 0 cm for the first, 0 cm for the second.

Going from `Cc1ccc(-n2n[o+]c([O-])c2-c2nn3cc(-c4cc5cc(Cl)ccc5oc4=O)nc3s2)cc1` to STANNOUS CHLORIDE, the “diameter of the inhibition zone (DIZ)” value rises from 0 cm to 0.3 cm.

For `COc1ccc(-n2n[o+]c([O-])c2-c2nn3cc(-c4cc5ccccc5oc4=O)nc3s2)cc1`, the “diameter of the inhibition zone (DIZ)” value was 0 cm.

Tested on: Escherichia coli
Assay: Induction of Escherichia coli DNA cleavage at 25 mg after 2 hr by agarose gel electrophoresis
Settings: not given

For `O=c1oc2ccccc2cc1-c1cn2nc(-c3c([O-])[o+]nn3-c3ccc(Cl)cc3)sc2n1`, the Activity was “Active”.
`Cc1ccc(-n2n[o+]c([O-])c2-c2nn3cc(-c4cc5cc(Cl)ccc5oc4=O)nc3s2)cc1` was tested, and the Activity was “Active”.

Tested on: Escherichia coli
Assay: Toxicity in wild type Escherichia coli AB1157 assessed as growth inhibition at 2000 ug after 24 hr by agar well diffusion method
Type: organism-based
Settings: in vivo

Compared with `O=c1oc2ccccc2cc1-c1cn2nc(-c3c([O-])[o+]nn3-c3ccc(Cl)cc3)sc2n1`, `COc1ccc(-n2n[o+]c([O-])c2-c2nn3cc(-c4cc5cc(Br)ccc5oc4=O)nc3s2)cc1` is higher in “diameter of the inhibition zone (DIZ)” value: 0 cm for the first, 0.8 cm for the second.

`O=c1oc2ccccc2cc1-c1cn2nc(-c3c([O-])[o+]nn3-c3ccccc3)sc2n1` and `O=c1oc2ccc(Br)cc2cc1-c1cn2nc(-c3c([O-])[o+]nn3-c3ccccc3)sc2n1` are the same in “diameter of the inhibition zone (DIZ)” value: 0 cm for the first, 0 cm for the second.

Compared with `Cc1ccc(-n2n[o+]c([O-])c2-c2nn3cc(-c4cc5cc(Cl)ccc5oc4=O)nc3s2)cc1`, STANNOUS CHLORIDE is higher in “diameter of the inhibition zone (DIZ)” value: 0 cm for the first, 1.5 cm for the second.

With `COc1ccc(-n2n[o+]c([O-])c2-c2nn3cc(-c4cc5ccccc5oc4=O)nc3s2)cc1` the “diameter of the inhibition zone (DIZ)” value was 0.8 cm.

Tested on: Escherichia coli
Assay: Toxicity in wild type Escherichia coli AB1157 assessed as growth inhibition at 1000 ug after 24 hr by agar well diffusion method
Type: organism-based
Settings: in vivo

Going from `O=c1oc2ccccc2cc1-c1cn2nc(-c3c([O-])[o+]nn3-c3ccc(Cl)cc3)sc2n1` to `COc1ccc(-n2n[o+]c([O-])c2-c2nn3cc(-c4cc5cc(Br)ccc5oc4=O)nc3s2)cc1`, the “diameter of the inhibition zone (DIZ)” value rises from 0 cm to 0.5 cm.

`O=c1oc2ccccc2cc1-c1cn2nc(-c3c([O-])[o+]nn3-c3ccccc3)sc2n1` and `O=c1oc2ccc(Br)cc2cc1-c1cn2nc(-c3c([O-])[o+]nn3-c3ccccc3)sc2n1` are the same in “diameter of the inhibition zone (DIZ)” value: 0 cm for the first, 0 cm for the second.

Going from `Cc1ccc(-n2n[o+]c([O-])c2-c2nn3cc(-c4cc5cc(Cl)ccc5oc4=O)nc3s2)cc1` to STANNOUS CHLORIDE, the “diameter of the inhibition zone (DIZ)” value rises from 0 cm to 0.8 cm.

For `COc1ccc(-n2n[o+]c([O-])c2-c2nn3cc(-c4cc5ccccc5oc4=O)nc3s2)cc1`, the “diameter of the inhibition zone (DIZ)” value was 0.5 cm.

Tested on: Escherichia coli
Assay: Toxicity in wild type Escherichia coli AB1157 assessed as growth inhibition at 125 ug after 24 hr by agar well diffusion method
Type: organism-based
Settings: in vivo

In the case of `O=c1oc2ccccc2cc1-c1cn2nc(-c3c([O-])[o+]nn3-c3ccc(Cl)cc3)sc2n1`, the “growth inhibition (GI)” value is reported as “Non-toxic”.
With `COc1ccc(-n2n[o+]c([O-])c2-c2nn3cc(-c4cc5cc(Br)ccc5oc4=O)nc3s2)cc1` the “growth inhibition (GI)” value was “Non-toxic”.
`O=c1oc2ccccc2cc1-c1cn2nc(-c3c([O-])[o+]nn3-c3ccccc3)sc2n1` was tested, and the “growth inhibition (GI)” value was “Non-toxic”.
For `O=c1oc2ccc(Br)cc2cc1-c1cn2nc(-c3c([O-])[o+]nn3-c3ccccc3)sc2n1`, the “growth inhibition (GI)” value was “Non-toxic”.
With `Cc1ccc(-n2n[o+]c([O-])c2-c2nn3cc(-c4cc5cc(Cl)ccc5oc4=O)nc3s2)cc1` the “growth inhibition (GI)” value was “Non-toxic”.
For STANNOUS CHLORIDE, the “growth inhibition (GI)” value was “Non-toxic”.
`COc1ccc(-n2n[o+]c([O-])c2-c2nn3cc(-c4cc5ccccc5oc4=O)nc3s2)cc1` was tested, and the “growth inhibition (GI)” value was “Non-toxic”.

Tested on: Escherichia coli
Assay: Toxicity in wild type Escherichia coli AB1157 assessed as growth inhibition at 500 ug after 24 hr by agar well diffusion method
Type: organism-based
Settings: in vivo

`O=c1oc2ccccc2cc1-c1cn2nc(-c3c([O-])[o+]nn3-c3ccc(Cl)cc3)sc2n1` and `COc1ccc(-n2n[o+]c([O-])c2-c2nn3cc(-c4cc5cc(Br)ccc5oc4=O)nc3s2)cc1` are the same in “diameter of the inhibition zone (DIZ)” value: 0 cm for the first, 0 cm for the second.

`O=c1oc2ccccc2cc1-c1cn2nc(-c3c([O-])[o+]nn3-c3ccccc3)sc2n1` and `O=c1oc2ccc(Br)cc2cc1-c1cn2nc(-c3c([O-])[o+]nn3-c3ccccc3)sc2n1` are the same in “diameter of the inhibition zone (DIZ)” value: 0 cm for the first, 0 cm for the second.

Going from `Cc1ccc(-n2n[o+]c([O-])c2-c2nn3cc(-c4cc5cc(Cl)ccc5oc4=O)nc3s2)cc1` to STANNOUS CHLORIDE, the “diameter of the inhibition zone (DIZ)” value rises from 0 cm to 0.5 cm.

For `COc1ccc(-n2n[o+]c([O-])c2-c2nn3cc(-c4cc5ccccc5oc4=O)nc3s2)cc1`, the “diameter of the inhibition zone (DIZ)” value was 0 cm.

Tested on: Escherichia coli
Assay: Toxicity in wild type Escherichia coli AB1157 assessed as growth inhibition after 24 hr by agar well diffusion method
Type: organism-based
Settings: in vivo

Compared with `O=c1oc2ccccc2cc1-c1cn2nc(-c3c([O-])[o+]nn3-c3ccc(Cl)cc3)sc2n1`, `COc1ccc(-n2n[o+]c([O-])c2-c2nn3cc(-c4cc5cc(Br)ccc5oc4=O)nc3s2)cc1` is lower in MIC: > 2 mg for the first, 1 mg for the second.

`O=c1oc2ccccc2cc1-c1cn2nc(-c3c([O-])[o+]nn3-c3ccccc3)sc2n1` and `O=c1oc2ccc(Br)cc2cc1-c1cn2nc(-c3c([O-])[o+]nn3-c3ccccc3)sc2n1` cannot be ordered by MIC: > 2 mg for the first, > 2 mg for the second.

First: Cc1ccc(-n2n[o+]c([O-])c2-c2nn3cc(-c4cc5cc(Cl)ccc5oc4=O)nc3s2)cc1
Second: STANNOUS CHLORIDE
The MIC of the first is higher: > 2 mg for the first, 0.25 mg for the second.

`COc1ccc(-n2n[o+]c([O-])c2-c2nn3cc(-c4cc5ccccc5oc4=O)nc3s2)cc1` showed an MIC of 1 mg.
